The results in this text go back to patent publication US20250179079A1, “HEXAHYDROPYRIDO[4,3-B]INDOLYL KETONE DERIVATIVES USEFUL AS CGAS MODULATORS” (Ventus Therapeutics U.S., Inc., priority 2022, published 2025).

Series [1] in a line: Solubility (e.g., in phosphate buffered saline (PBS)). Format: physicochemical. Particulars: aqueous buffer, Table D.
Another series addresses h-cGAS (Homo sapiens (Human), UniProt Q8N884). The experiment in a line: hcGAS Kinase-Glo assay. The class given is biochemical.
Setting [2] is: Table D comparative data, IC50 range designation, read-out: hcGAS (IC50).
The mark [3] stands for this setting: Table D comparative data, raw data in parentheses, read-out: hcGAS (IC50).
Setting [4] is: Table C, raw data in parentheses, read-out: hcGAS IC50.
Where [5] appears, read: Table C, IC50 range designation, read-out: hcGAS IC50.

SMILES strings stand for the structures. ≈ marks a conversion by molar mass, not a printed value. Read-outs that look alike come from different tables or passages of the source.

Sequence of h-cGAS (Q8N884 whole entry): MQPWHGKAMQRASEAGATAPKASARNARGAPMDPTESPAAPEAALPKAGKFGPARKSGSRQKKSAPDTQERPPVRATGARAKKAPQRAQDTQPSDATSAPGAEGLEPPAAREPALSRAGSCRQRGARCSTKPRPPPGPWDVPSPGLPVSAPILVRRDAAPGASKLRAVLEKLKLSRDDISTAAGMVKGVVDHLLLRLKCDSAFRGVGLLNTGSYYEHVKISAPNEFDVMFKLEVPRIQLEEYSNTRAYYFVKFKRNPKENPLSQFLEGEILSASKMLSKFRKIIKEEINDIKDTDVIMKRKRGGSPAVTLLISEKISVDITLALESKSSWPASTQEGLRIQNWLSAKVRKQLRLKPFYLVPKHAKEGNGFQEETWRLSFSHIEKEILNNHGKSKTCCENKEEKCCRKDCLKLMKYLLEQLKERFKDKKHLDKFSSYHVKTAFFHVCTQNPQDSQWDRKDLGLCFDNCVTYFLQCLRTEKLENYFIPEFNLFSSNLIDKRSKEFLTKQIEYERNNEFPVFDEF

As to `Cn1ccc(-c2cc(Cl)c(Cl)c3nn4c(c23)CN(C(=O)CO)CC4)n1` [Comparative Example D, 1-(7,8-dichloro-10-(1-methyl-1H-pyrazol-3-yl)-3,4-dihydropyrazino[1,2-b]indazol-2(1H)-yl)-2-hydroxyethan-1-one, reference compound], in series [1], the solubility (usually how much of the substance goes into solution per volume) was 53 µM (≈ 20.2 µg/mL).

In series [1], `O=C(CO)N1CCc2[nH]c3c(Cl)c(Cl)ccc3c2C1` [Comparative Example A, 1-(6,7-dichloro-1,3,4,5-tetrahydro-2H-pyrido[4,3-b]indol-2-yl)-2-hydroxyethan-1-one] came in with a solubility of 2 µM (≈ 0.598 µg/mL).

In series [1], `Cn1ccc(-c2cc(Cl)c(Cl)c3[nH]c4c(c23)CN(C(=O)CO)CC4)n1` [Comparative Example B, 1-(6,7-dichloro-9-(1-methyl-1H-pyrazol-3-yl)-1,3,4,5-tetrahydro-2H-pyrido[4,3-b]indol-2-yl)-2-hydroxyethan-1-one, reference compound] showed a solubility of 8.1 µM (≈ 3.07 µg/mL). For the same compound, the IC50 was under 0.1 µM on h-cGAS (setting [2]) and 0.0352 µM at h-cGAS (setting [3]).

The compound `O=C(CO)N1CCn2nc3c(Cl)c(Cl)ccc3c2C1` [Comparative Example C, 1-(7,8-dichloro-3,4-dihydropyrazino[1,2-b]indazol-2(1H)-yl)-2-hydroxyethan-1-one, reference compound] displayed a solubility in series [1] of 76 µM (≈ 22.8 µg/mL). Further, the values for the IC50 on h-cGAS (setting [2]) and at h-cGAS (setting [3]) were over 5 µM and 12.8 µM, respectively.

Take `C[C@H]1c2c([nH]c3c(Cl)c(Cl)ccc23)CCN1C(=O)CO` [Compound 157, (S)-1-(6,7-dichloro-1-methyl-1,3,4,5-tetrahydro-2H-pyrido[4,3-b]indol-2-yl)-2-hydroxyethan-1-one]: the concentration in solution in series [1] (solubility) was 42 µM (≈ 13.2 µg/mL).

Turning to `CC1c2c([nH]c3c(Cl)c(Cl)ccc23)CCN1C(=O)NO` (racemic) [Rac-97, 6,7-dichloro-N-hydroxy-1-methyl-1,3,4,5-tetrahydro-2H-pyrido[4,3-b]indole-2-carboxamide], the IC50 on h-cGAS (setting [4]) was found to be 0.821 µM.

In the case of `C[C@@H]1c2c3c(-c4ccn(C)n4)cc(Cl)c(Cl)c3nn2CCN1C(=O)CO` (single isomer, unassigned) [61A*], the figures for the IC50 on h-cGAS (setting [5]) and on h-cGAS (setting [4]) were over 5 µM and over 10 µM, respectively.

For the compound `C[C@@H]1c2c([nH]c3c(Cl)c(Cl)ccc23)CCN1C(=O)CN` (single isomer, unassigned) [51A*], the IC50 at h-cGAS (setting [5]) is over 5 µM; on h-cGAS (setting [4]) it was over 10 µM.

For `Nc1ccnc(C(=O)N2CCc3[nH]c4c(Cl)c(Cl)ccc4c3C2)n1` [Compound 14, (4-aminopyrimidin-2-yl)(6,7-dichloro-1,3,4,5-tetrahydro-2H-pyrido[4,3-b]indol-2-yl)methanone], the IC50 was 1 to 5 µM at h-cGAS (setting [5]), 1.52 µM on h-cGAS (setting [4]) and 1 to 5 µM at h-cGAS (read-out: hcGAS activity).

Consider `CC1c2c([nH]c3c(Cl)c(Cl)ccc23)CCN1C(=O)c1ncc(N2CCN(C)CC2)cn1` (racemic) [Rac-48, (6,7-dichloro-1-methyl-1,3,4,5-tetrahydro-2H-pyrido[4,3-b]indol-2-yl)(5-(4-methylpiperazin-1-yl)pyrimidin-2-yl)methanone], for which the IC50 at h-cGAS (setting [4]) turned out to be 0.052 µM.

Regarding `CC1c2c([nH]c3c(Cl)c(Cl)ccc23)CCN1C(=O)c1ncc(N2CCN3CC(F)(F)C[C@H]3C2)cn1` (mixture of isomers) [Rac-50, (6,7-dichloro-1-methyl-1,3,4,5-tetrahydro-2H-pyrido[4,3-b]indol-2-yl)(5-((S)-7,7-difluorohexahydropyrrolo[1,2-a]pyrazin-2(1H)-yl)pyrimidin-2-yl)methanone], the IC50 at h-cGAS (setting [4]) amounted to 0.0895 µM.

As to `COc1cnc(C(=O)N2CCn3nc4c(Cl)c(Cl)ccc4c3[C@@H]2C)nc1` (single isomer, unassigned) [52B*], the IC50 is under 0.1 µM on h-cGAS (setting [5]) and 0.0715 µM at h-cGAS (setting [4]).
